# Patent publication US20140259191A1, “FISH ANESTHETIC AND METHOD” (AQUA-MOR TECHNOLOGIES LTD., priority 2011, published 2014)
# Tests used:
# [1] = system: fish; assay: Exposure of fish to linalool at different concentrations and times (survival, anesthesia); type: in vivo
# Description: As will be appreciated by persons skilled in the art, for a given type of aquatic organism of a given size, there is an inverse (though not necessarily linear) relationship between the concentration of linalool in the water and the amount of time the organism needs to be exposed to the linalool in order to achieve sedation or anesthetization, and similarly there is an inverse (though not necessarily linear) relationship between the linalool concentration and the amount of time an organism may be exposed to the linalool in order before death occurs. […] On the other hand, the same fish were unaffected by exposure to 25 ppm linalool, even for long periods of time.
# [2] = system: catfish; assay: Anesthesia of catfish by linalool added to tank water; type: in vivo, Clarias gariepinus; conditions: 100 ppm linalool
# Method: To a four liter tank containing […] 10-month old catfish (Clarias gariepinus) of respective weights 31 g, 14 g, 24 g and 9 g and respective body lengths 17 cm, 13 cm, 16 cm and 10 cm in water at 31° C. and pH 7 was added a formulation containing 1% linalool. The formulation was added to the water to a linalool concentration of 100 ppm in the water. The fish became relaxed 2 5 minutes after addition of linalool and after 4 minutes were completely anesthetized. At 5.5 minutes the fish were removed to a recovery tank with fresh water. After 7 minutes in the recovery tank the fish resumed normal behavior.
# [3] = system: carp fish; assay: Anesthesia of carp by linalool added to tank water; type: in vivo, Cyprinus carpio; conditions: for time after addition of linalool until fish became relaxed / time until fish completely anesthetized: pH 7
# Method: To a 100 liter tank containing 462 10-month old carp fish (Cyprinus carpio) of average weight 70 g and average body length 10 cm, having water at 25° C. at pH 7 was added a formulation containing 1% linalool. The formulation was added to the water to a linalool concentration of 75 ppm in the water. The fish became relaxed 3 minutes after addition of linalool and after 5 minutes were completely anesthetized. After 15 minutes the fish were removed to a recovery tank with fresh water. After 20 minutes in the recovery tank the fish resumed normal behavior.
# (§1) To a 20 liter tank containing eight 2.5-year old carp fish of average weight 1 kg and average body length 50 cm in water at 20° C. and pH 7 was added a formulation containing 1% linalool. The formulation was added to the water to a linalool concentration of 100 ppm in the water. The fish became relaxed 2 minutes after addition of linalool and after 3 minutes were completely anesthetized. At 3 minutes the fish were removed to a recovery tank with fresh water. After 7 minutes in the recovery tank the fish resumed normal behavior.
# To a 20 liter tank containing eight 1.8-year old carp fish of average weight 250 g and body length 21-24 cm in water at 20° C. and pH 7 was added a formulation containing 1% linalool. The formulation was added to the water to a linalool concentration of 50 ppm in the water. The fish became relaxed 3 minutes after addition of linalool and after 7 minutes were completely anesthetized. At 17 minutes the fish were removed to a recovery tank with fresh water. After 29 minutes in the recovery tank the fish resumed normal behavior.
# as §1, with “2.2-year” for “2.5-year”, “380 g” for “1 kg”, “and” for “and average”, “30-32” for “50”, “At 17” for “After 7”
# [4] = system: Ramirez fish; assay: Anesthesia of Ramirez fish by linalool or Ho Wood oil added to tank water; type: in vivo
# Method: A one year old koi fish of body length 11 cm and which appeared to be healthy was placed in a 4 liter tank containing water at 25° C. and in which the water was circulated by means of aeration. A liquid a mixture containing 1 wt. % synthetic linalool (1 wt. % linalool, 5 wt. % 14R, 2 wt. % AF80 and 92 wt. % water) was added to the tank and manually mixed with the water so that the concentration of linalool in the water was 50 ppm. This was regarding as the starting time of the experiment; thereafter, observations were made regularly to determine the behavior of the fish in water. This continued until no response to external stimulation and complete loss of equilibrium were observed, at which point the fish was transferred to a recovery tank containing fresh water. The fish was placed near the air pump, and the time until the fish again swam and responded normally to external stimulation was recorded.
# This experiment repeated the experiment of Example 1, using three goldfish (Carassius auratus auratus, average body length 12.5 cm) and five Ramirez fish (Mikrogeophagus ramirezi, body length 3.5-4 cm). All fishes appeared to be healthy. The goldfish tank held 4 liters of water and the tank holding the Ramirez fish one liter.
# The experiment of example 9 was repeated, this time using five nine-month old Ramirez fish (M. ramirezi) in a one-liter tank. The respective weights were 0.8 g, 0.75 g, 0.7 g, 0.85 g and 0.75 g and the respective body lengths were 3.5 cm, 3.5 cm, 3 cm, 4 cm and 3 cm. The water temperature was 26° C. and the pH was 7. The fish became relaxed 2 minutes after addition of linalool, and after 5 minutes the fish were completely anesthetized. After 10 minutes the fish were removed to a recovery tank with fresh water. After 5 minutes in the recovery tank the fish had resumed normal behavior.
# The experiment of Example 21 was repeated, using four one-year old Ramirez fish of respective body lengths 3, 2.5, 3 and 3.5 cm, and adding the Ho Wood oil to a linalool concentration of 50 ppm in the water. […] At 2.5 minutes the fish were removed to a recovery tank with clean water. After 7 minutes in the recovery tank they swam around and appeared to have resumed normal activity.
# The experiment of Example 21 was repeated, using four 1-year old Ramirez fish of respective body lengths 3, 3.5, 3.5 and 4 cm, and adding the Ho Wood oil to a linalool concentration in the water of 75 ppm instead 50 ppm. […] At 1.5 minutes the fish were removed to a recovery tank with clean water. After 7 minutes in the recovery tank the fish swam around and appeared to have resumed normal activity.
# [5] = Example 13: 462 carp, average 70 g, 75 ppm linalool, 25° C.
# [6] = Example 14: eight carp, average 1 kg, 100 ppm linalool, 20° C.
# [7] = Example 15: eight carp, average 250 g, 50 ppm linalool, 20° C.
# [8] = Example 16: eight carp, average 380 g, 100 ppm linalool, 20° C.
# [9] = Example 12: five Ramirez fish 0.7-0.85 g, experiment of example 9 (50 ppm linalool), 26° C., pH 7
smiles,measurement,setting,value
C=CC(C)(O)CCC=C(C)C (stereo not shown) [linalool],effect of exposure,"[1]; fish exposed to 25 ppm linalool, even for long periods of time",unaffected
same,survival,[1]; fish left for 40 minutes in 100 ppm linalool,did not survive
same,survival,[1]; fish left for 50 minutes in 75 ppm linalool,did not survive
same,anesthesia,[1]; fish left for five minutes in 100 ppm linalool,effectively anesthetized
same,time until fish completely anesthetized,"[2]; Example 19: catfish 9-31 g, 31° C., pH 7",4 min
same,time in recovery tank until normal behavior resumed,"[2]; Example 19: catfish, removed at 5.5 minutes",7 min
same,time after addition of linalool until fish became relaxed,[3]; [5],3 min
same,time until fish completely anesthetized,[3]; [5],5 min
same,time in recovery tank until normal behavior resumed,"[3]; Example 13: carp 70 g, 75 ppm linalool, removed after 15 minutes",20 min
same,time in recovery tank until normal behavior resumed,"[3]; Example 14: carp 1 kg, 100 ppm linalool, removed at 3 minutes",7 min
same,time after addition of linalool until fish became relaxed,[3]; [6],2 min
same,time until fish completely anesthetized,[3]; [6],3 min
same,time in recovery tank until normal behavior resumed,"[3]; Example 15: carp 250 g, 50 ppm linalool, removed at 17 minutes",29 min
same,time after addition of linalool until fish became relaxed,[3]; [7],3 min
same,time until fish completely anesthetized,[3]; [7],7 min
same,time in recovery tank until normal behavior resumed,"[3]; Example 16: carp 380 g, 100 ppm linalool, removed at 3 minutes",17 min
same,time after addition of linalool until fish became relaxed,[3]; [8],2 min
same,time until fish completely anesthetized,[3]; [8],3 min
same,mortality during a further three days of observation,"[4]; Example 7: five Ramirez fish 3.5-4 cm, experiment of Example 1 repeated",no mortality occurred
same,time in recovery tank until normal behavior resumed,"[4]; Example 12: Ramirez fish, 26° C., removed after 10 minutes",5 min
same,time after addition of linalool until fish became relaxed,[4]; [9],2 min
same,time until fish completely anesthetized,[4]; [9],5 min
